The test system of one data set is Pf NF54. The following applies: ref Beteck et al., cited from earlier work.
The subject of data set [1] is multidrug resistant Pf K1. Also on record: method as in Beteck et al., 2018. The conditions noted are these: ref Beteck et al., 2018; read-out: IC50 against multidrug resistant Pf K1; cited from earlier work.
For data set [2] the following is noted: pH range of 4–9; ref EFSA 2003; cited from earlier work.
The conditions of data set [3]: cited from earlier work.
On the set-up of data set [4]: method as in Wang et al., 2014. The conditions noted are these: dosed as a micro-suspension in mice; ref Wang et al., 2014; cited from earlier work.
The nature of data set [5]: Kinetic solubility in PBS (HPLC-DAD). It is filed as physicochemical. The following applies: phosphate buffer saline (PBS); for solubility kinetic at 2 h: aqueous buffer, kinetic from dmso stock. The procedure: Stock concentrations of test samples (10 mM) were prepared in DMSO and diluted to a final concentration of […] in phosphate buffer saline (PBS) solutions at pH 2, 6.5, and 7.4 in flat-bottomed 96-well plates. A three-point calibration curve of each control and test compound was prepared from stock solutions in DMSO. Plates were agitated on an orbital shaker at room temperature for 2 h at 200 rpm and subsequently analysed using a reverse phase Gemini NX-C18 column (5 μM, 2.1 mm × 50 mm) with an Agilent 1,200 Rapid Resolution HPLC and diode array detection.

A short description of data set [6]: Lipophilicity, 1-octanol/phosphate buffer pH 7.4 (LogD7.4). It is filed as physicochemical. The procedure:
Stock solutions ([…]) of compounds were diluted to 100 μM in 96-well deep-well plate containing 1-octanol and phosphate buffer at pH 7.4. The plate was agitated on an orbital shaker at 750 rpm for 2 h. The organic and buffer layers of each well were transferred separately to a new analysis plate. The samples were analysed with the HPLC-diode array detection as described for kinetic solubility. Samples from both layers were analysed to determine LogD7.4 values.

Data set [7] in a line: Passive permeability, parallel artificial membrane permeation assay (PAMPA). It is filed as in vitro ADME. The conditions noted are these: donor pH 6.5, acceptor pH 7.4, 4 h, read-out: Permeability (LogPapp) (converted). Here is the method:
A parallel artificial membrane permeation assay (PAMPA) was used to assess the passive permeability of compounds with a 96-well MultiScreen filter plate ([…] pore size, Millipore). The filter plate was precoated with 5% hexadecane in hexane. Stock solutions of compounds were diluted to 1 mM in a donor buffer (pH 6.5). Lucifer yellow was added to the apical wells of the precoated MultiScreen plate containing compound donor solution. The donor buffer solutions were spiked with each test compound (1 mM). The acceptor-buffer solution was prepared by adding 10 μL DMSO to 990 μL acceptor buffer (pH 7.4) and 250 μL were added to the basolateral (acceptor) wells. The donor plate was carefully inserted into the acceptor plate and incubated at room temperature for 4 h. After the incubation period, 50 μL of samples from the acceptor plate were transferred to a round bottom 96-well plate, together with 30 μL of donor buffer for matrix matching. Theoretical equilibrium samples for each test compound were prepared by adding 150 μL of donor solutions to 250 μL acceptor solutions and left at room temperature. These theoretical equilibrium samples represent complete transfer of the compound into the donor well. For the theoretical equilibrium samples, 80 μL were added to the analysis plate. Lastly, 160 μL of the internal standard carbamazepine (0.1 μM) was added to all acceptor and equilibrium samples. A portion of the sample containing Lucifer yellow was analyzed on a BioRad iMark^TM Microplate Absorbance Reader (BioRad, Hercules, CA, United States; excitation 490 nm, emission 510–570 nm) to determine that P app was within the acceptable range (<50 nm/s). Samples were analysed using reverse phase Gemini NX-C18 column (5 μM, 2.1 mm × 50 mm) with a Shimadzu HPLC coupled with an AB Sciex 3200 Q TRAP MS). The Papp for each compound was determined using. C=VD × VA/(VD+VA) ×A×t where VA = volume of donor compartment (0.15 cm^3), VD = volume of acceptor compartment (0.25 cm^3), A = accessible filter area (0.24 cm^2) and t = incubation time (14,400 s). […]

The next data set in a line: Plasma stability. The conditions noted are these: human plasma; for half-life: pooled plasma, 37°C. It is filed as in vitro ADME. The procedure: Stock solutions of compounds in DMSO were used to spike pooled human plasma. Samples were transferred in duplicate to 6 different wells of a 96-deep well plate. An aliquot of each sample was immediately quenched with ice cold acetonitrile containing the internal standard carbamazepine (0.1 μM), after which the plate was incubated in a water bath (37°C for 1 h). Aliquots of samples were removed at 5, 15, 40, 60, and 180 min and quenched with ice cold acetonitrile. After samples of the final time point were precipitated, the supernatant was transferred to a round bottom 96-well plate for analysis by LC-MS/MS using a reverse phase Gemini NX-C18 column (5 μM, 2.1 mm × 50 mm) with a Shimadzu HPLC coupled with an AB Sciex 3200 Q TRAP MS). The peak area ratios were used to calculate the amount of parent compound remaining and t1/2 in plasma, using the following equations.
% Parent remaining % Parent= Normalised peak area of sample at timepoint/Normalised peak area of sample at t=0 x 100
Predicted t1/2 t1/2= −0.693/λ Where λ is the slope of the Ln % parent remaining vs. time curve.

A short description of data set [8]: Metabolic stability in mouse liver microsomes. It is filed as in vitro ADME. The conditions noted are these: for Estimated in vivo CLH MLM: *protein binding data not included; for half-life: mouse liver microsomes, NADPH, read-out: Degradation half-life MLM; for CLint scaled: mouse, liver microsomes, calculated from t1/2 in MLM, read-out: In vitro CLint MLM. The procedure:
(§1) A 5-point metabolic stability assay in human and mouse liver microsomes were performed in duplicate in 96-well plates. Stock solution of RMB005, −059 and 060 prepared in DMSO were individually incubated at 37°C in mouse and pooled human liver microsomes (0.4 mg/mL). An aliquot was removed at 0 min and quenched with ice cold acetonitrile containing the internal standard carbamazepine (0.1 μM). The cofactor NADPH was added, and the reactions were subsequently stopped at time points 5, 10, 30, and 60 min by removal of an aliquot and quenching with ice cold acetonitrile containing the internal standard. The supernatant of all samples were analysed via LC-MS/MS analysis (reverse phase Gemini NX-C18 column and Shimadzu HPLC and AB Sciex 3200 Q TRAP MS). Calculation of in vitro t1/2, intrinsic clearance rate (CLint) and predicted in vivo clearance (CLH) was carried out using the following equations ([Obach 1999]). CLintClint= 0.693/t1/2(min) ×Volume of incubation (μL)/microsomal protein (μg) Where t1/2 is calculated in minutes.
(§2) Predicted in vivo CLH CLH=Q × fu(plasma)×CLint/fu(mic)/Q+ fu(plasma)× CLint/fu(mic) Where Q is the hepatic blood flow of mouse (90 mL/min/kg) or human (20.7 mL/min/kg). Fu(plasma) is the unbound drug fraction in the plasma and fu(mic) is the unbound fraction in the microsomes.
(§3) The equation below was used in the case of RMB059 and -060, where protein-binding data were not available. CLH=Q × CLint/Q+ CLint

Data set [9] in a line: Metabolic stability in human liver microsomes. It is filed as in vitro ADME. The conditions noted are these: for Estimated in vivo CLH HLM: *protein binding data not included; for CLint scaled: human, calculated from t1/2 in HLM, read-out: In vitro CLint HLM; for CLint scaled / half-life: pooled liver microsomes; for half-life: human liver microsomes, NADPH, read-out: Degradation half-life HLM. The procedure: as §1, §2, §3

Data set [10] concerns multidrug resistant Pf W2. Also on record: method as in Beteck et al., 2018. The following applies: ref Beteck et al., 2018; read-out: Activity against multidrug resistant Pf W2; cited from earlier work.
A further data set has as its system Toxoplasma gondii (Tg). Also on record: method as in Beteck et al., 2018. The following applies: in vitro; ref Beteck et al., 2018; read-out: IC50 against Toxoplasma gondii; cited from earlier work.
Another data set concerns Neospora caninum. Also on record: method as in Beteck et al., 2018. The conditions noted are these: in vitro; ref Beteck et al., 2018; read-out: IC50 against Neospora caninum; cited from earlier work.
The subject of data set [11] is P. berghei sporozoite liver stages. The conditions noted are these: abstract; no reference given; cited from earlier work.
Details of data set [12]: method as in Tanner et al., 2019. The following applies: ref Tanner et al., 2019; cited from earlier work.
For data set [13] the following is noted: cited from earlier work. This is another data set of the same source.
The mark [14] stands for this setting: 2018, read-out: IC50 against Pf NF54.

SMILES strings stand for the structures. In brackets after ≈: the same amount, converted by molar mass. Like-named read-outs stand apart in the source and are kept apart here.

Regarding `CCCCCCCCCCOc1cc2c(O)c(C(=O)OCC)cnc2cc1OCC` [DQ, decoquinate], the IC50 in the data set on Pf NF54 (Pf NF54, 2018, read-out: NF54 IC50 (line in the PK figures, in vitro IC50 in the discussion)) is 26 nM; with Pf NF54 (2016, read-out: In vitro activity against chloroquine-sensitive NF54 asexual parasites), 26.6 nM; with Pf NF54 (setting [14]), 26.6 nM; in data set [1] it was 64.9 nM. Also, in data set [2], the “Solubility in buffered aqueous solutions” value was 0.024 µM (≈ 0.01 µg/mL). Further, in [2], the “Solubility in buffered water” value was 0.01 µg/mL (≈ 0.0239 µM). Moreover, the “Octanol/water partition coefficient (Log Kow or LogP)” value in data set [3] (25°C, pH 5, 7, or 9, ref Bampidis et al., 2019) is ≥ 5.7. In addition, in data set [3] (ref Burger et al., 2018), the LogD is recorded as 7.8. Also, the “Relative BA” value in data set [4] is 6%.

As for `CCCCCCCCCCOc1cc2c(OC(=O)N3CCOCC3)c(C(=O)OCC)cnc2cc1OCC` [RMB059], the solubility (kinetic) at 2 h is < 5 µM in [5] (PBS pH 2, read-out: Kinetic solubility pH 2); < 5 µM in data set [5] (PBS pH 6.5, read-out: Kinetic solubility pH 6.5); < 5 µM in data set [5] (PBS pH 7.4, read-out: Kinetic solubility pH 7.4). In data set [5] (all pH levels tested (pH 2, 6.5, 7.4)), the solubility at 2 h was < 5 µM. In addition, the logD at 2 h in [6] came to 2.9. In addition, the Papp at 4 h, 1 mM in [7] was 1.58 ×10⁻⁶ cm/s. Also, the “Plasma stability (in words)” value in “Plasma stability” is given as “high degree of lability”. The figures for the half-life (in the data set “Plasma stability”; in data set [8]; in data set [9]) were 66 min, 16.6 min and 10.6 min, respectively. Moreover, the “Estimated in vivo CLH MLM” value in data set [8] is listed as 75.2* mL/min/kg. Besides, the CLint scaled is 457 mL/min/kg in [8] and 410 mL/min/kg in [9]. Also, in data set [9], the “Estimated in vivo CLH HLM” value was 19.7* mL/min/kg. The IC50 was 6.8 nM in the data set on Pf NF54 (setting [14]), 14.4 nM in [1] and 5.7 nM in [10].

For the compound `CCCCCCCCCCOc1cc2c(OC(=O)N3CCN(S(C)(=O)=O)C3=O)c(C(=O)OCC)cnc2cc1OCC` [RMB060], the pH-dependent lipophilicity (logD) at 2 h in [6] was determined as 2.9. Besides, the Papp at 4 h, 1 mM in data set [7] is 0.501 ×10⁻⁶ cm/s. The “Plasma stability (in words)” value in “Plasma stability” is listed as “high degree of lability”. For the same compound, the values for the half-life (in “Plasma stability”; in data set [8]; in data set [9]) were < 8 min, 14.5 min and 13.1 min, respectively. Moreover, the “Estimated in vivo CLH MLM” value in data set [8] is recorded as 77.2* mL/min/kg. The CLint scaled was 541 mL/min/kg in data set [8] and 183 mL/min/kg in [9]. Further, the “Estimated in vivo CLH HLM” value in data set [9] is reported as 18.6* mL/min/kg. The IC50 in the data set with Pf NF54 (setting [14]) was 1.4 nM; in [1], 1.3 nM; in data set [10], 1.1 nM; in the data set on Toxoplasma gondii (Tg) it was 1.1 nM; in the data set on Neospora caninum, 0.6 nM. The “Activities against P. berghei sporozoite liver stages (in words)” value in data set [11] is “sub-nanomolar”.

As to `CCCCCCCCCCOc1cc2c(=O)c(C(=O)NCCOCCO)cn(CCO)c2cc1OCC` [RMB073], the “Predicted kinetic solubility at pH 7.4” value in data set [12] was > 150 µM. The Plasma half-life result in data set [13] was “greater than 6 h”.

Broadly, the LogD is lipophilicity at a set pH, counting ionised and neutral species. In general, kinetic solubility refers to the concentration staying in solution when a stock, usually in DMSO, is diluted into the medium. In general, solubility refers to the concentration that dissolves in the medium under given conditions. The term logD denotes lipophilicity at a set pH, counting ionised and neutral species. Lower therefore signals lower lipophilicity. As usually defined, the half-life is the time in which the quantity being followed falls by half.

The record behind these values is article PMC9450014, “The evaluation of ADME and pharmacokinetic properties of decoquinate derivatives for the treatment of malaria” (Frontiers in Pharmacology, 2022).
